Measured values published in ChEMBL document CHEMBL1201862, “PubChem BioAssay data set” (2004).
Blank lines part the entries; values can stand above or below the molecule they belong to. Active and inactive are the calls of the source.

What was measured:
[1] = target: T1, Scavenger receptor class B member 1 (Mus musculus, UniProt Q61009); assay: blockers of DiI-HDL lipid transfer via SR-BI – cell-based, ldlA[mSR-BI] CHO, DiI fluorescence, dry powder, set 10, dose response (AID 624029); assay type: functional
T1 sequence (Q61009 whole entry): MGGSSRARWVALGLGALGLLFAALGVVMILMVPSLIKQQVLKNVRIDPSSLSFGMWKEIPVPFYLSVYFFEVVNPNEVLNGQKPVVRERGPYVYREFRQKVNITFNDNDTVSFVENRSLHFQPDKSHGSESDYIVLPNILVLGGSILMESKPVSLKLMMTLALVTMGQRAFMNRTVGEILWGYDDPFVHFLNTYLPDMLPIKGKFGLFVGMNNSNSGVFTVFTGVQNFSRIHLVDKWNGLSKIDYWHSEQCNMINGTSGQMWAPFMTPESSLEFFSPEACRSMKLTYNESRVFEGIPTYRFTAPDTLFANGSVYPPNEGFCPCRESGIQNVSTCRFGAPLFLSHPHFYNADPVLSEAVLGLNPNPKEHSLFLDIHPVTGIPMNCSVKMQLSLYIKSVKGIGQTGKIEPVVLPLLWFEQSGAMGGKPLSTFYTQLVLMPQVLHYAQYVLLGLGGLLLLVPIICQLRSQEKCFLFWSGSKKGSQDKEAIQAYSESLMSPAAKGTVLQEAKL

[2] = target: T1, Scavenger receptor class B member 1; assay: mouse SR-BI DiI-HDL transfer blockers – ldlA[mSR-BI] CHO cells, fluorescence plate reader, dry powder, set 9, dose response (AID 623880); assay type: functional, cell-based
[3] = target: T2, Sentrin-specific protease 8 (Homo sapiens, UniProt Q96LD8); assay type: functional
T2 sequence (Q96LD8 whole entry): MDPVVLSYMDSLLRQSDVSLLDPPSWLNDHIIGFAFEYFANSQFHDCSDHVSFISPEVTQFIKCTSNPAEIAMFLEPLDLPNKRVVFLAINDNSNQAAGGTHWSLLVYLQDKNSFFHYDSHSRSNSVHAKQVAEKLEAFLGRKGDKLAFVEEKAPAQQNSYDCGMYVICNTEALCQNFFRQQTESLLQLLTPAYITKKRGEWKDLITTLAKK

[4] = target: T2, Sentrin-specific protease 8; assay type: functional; remark: listed apart in the source
[5] = target: T3, Beta-2 adrenergic receptor (Homo sapiens, UniProt P07550); assay: ADRB2 activation measured by internalization – cell-based, FAP fluorogen, flow cytometry, cherry pick 1, dose response (AID 588763); assay type: functional
[6] = target: Peroxisome proliferator-activated receptor gamma/Nuclear receptor coactivator 2 (Homo sapiens, UniProt P37231); assay type: functional;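 further: agonist potency for raising coactivator recruitment to the receptor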
[7] = viability of HCT116 lacking mutant beta-catenin – cell-based, human colon tumor, dose response (AID 1045); assay type: functional;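 further: HCT116 colon tumor cells with beta catenin knocked out; cells exposed to compound for 60 hours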
[8] = target: Peroxisome proliferator-activated receptor gamma/Nuclear receptor coactivator 1 (Homo sapiens, UniProt P37231); assay type: functional;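 further: agonist potency as compounds enhance coactivator SRC-1 recruitment to PPARgamma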
[9] = target: T3, Beta-2 adrenergic receptor; assay: Dose response for HTS for Beta-2AR agonists via FAP method from Powderset3.; assay type: functional
[10] = viability of PTEN-deleted HCT116 cells – cell-based, HCT116 PTEN knockout, dose response (AID 1047); assay type: functional;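 further: HCT116 colon tumor cells with PTEN knocked out; cells exposed to compound for 60 hours before readout; potency for loss of cell viability measured by luminescence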
[11] = target: Peroxisome proliferator-activated receptor gamma/Nuclear receptor coactivator 3 (Homo sapiens, UniProt P37231); assay type: functional;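 further: agonist potency for raising coactivator recruitment to the receptor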
[12] = target: Broad substrate specificity ATP-binding cassette transporter ABCG2 (Homo sapiens, UniProt Q9UNQ0); assay: blockers of JC-1 export by ABCG2 – Ig-MXP3 cells, flow cytometry, dose response (AID 1690); assay type: functional
[13] = target: ATP-dependent translocase ABCB1 (Homo sapiens, UniProt P08183); assay: inhibition of P-gp mediated JC-1 efflux – Jurkat-DNR cells, flow cytometry, dose response (AID 1689); assay type: functional
[14] = target: T4, Rac GTPase-activating protein 1 (Homo sapiens, UniProt Q9H0H5); assay: blockers of MgcRacGAP-driven Rac1 GTP hydrolysis – biochemical, ADP Hunter fluorescence, primary and confirmatory, confirmation (AID 624330); assay type: functional
T4 sequence (Q9H0H5 whole entry): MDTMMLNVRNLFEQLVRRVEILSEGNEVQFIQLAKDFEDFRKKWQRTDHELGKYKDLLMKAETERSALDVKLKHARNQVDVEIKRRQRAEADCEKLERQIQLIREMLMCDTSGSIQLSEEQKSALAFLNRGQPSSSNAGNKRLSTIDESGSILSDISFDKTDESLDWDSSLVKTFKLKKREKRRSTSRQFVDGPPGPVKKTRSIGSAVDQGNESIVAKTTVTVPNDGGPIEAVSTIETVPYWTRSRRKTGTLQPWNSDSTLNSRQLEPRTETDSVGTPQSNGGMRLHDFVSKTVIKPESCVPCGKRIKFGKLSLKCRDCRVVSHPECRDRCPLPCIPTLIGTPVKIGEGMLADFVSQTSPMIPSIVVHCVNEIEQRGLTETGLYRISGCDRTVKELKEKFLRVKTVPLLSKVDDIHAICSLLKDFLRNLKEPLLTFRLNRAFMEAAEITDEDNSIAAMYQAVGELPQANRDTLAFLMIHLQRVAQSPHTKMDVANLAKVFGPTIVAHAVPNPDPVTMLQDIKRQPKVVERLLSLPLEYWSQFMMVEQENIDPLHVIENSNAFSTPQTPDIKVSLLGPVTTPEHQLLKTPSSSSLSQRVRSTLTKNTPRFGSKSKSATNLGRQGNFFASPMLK

[15] = test system: HEK293; assay: cells; settings: Homo sapiens
[16] = non-specific 3'UTR reporter inhibition in Clone20-Shn3RL – cell-based, Renilla luciferase, cherry-picked, counter-screen for Shn3 inhibitor project, dose response (AID 624133); assay type: functional
[17] = target: X-box-binding protein 1 (Homo sapiens, UniProt P17861); assay type: functional, Cricetulus griseus;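 further: confirmatory dose-response counter-screen serving a CHOP assay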
[18] = cells; assay type: functional, cell-based
[19] = viability loss in HEK293T cells – cell-based, cherry-picks, cytotoxicity control for HIV Vif inhibitor project, dose response (AID 652208); assay type: functional
[20] = test system: HEK293; assay: cells; settings: Homo sapiens; remark: listed apart in the source
[21] = reduction of Shn3 3'UTR-driven luciferase in osteoblasts – cell-based, Clone20 osteoblasts, firefly luciferase, cherry-picked, dose response (AID 624132); assay type: functional;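 further: firefly luciferase luminescence from reporter carrying the Shn3 3'UTR in osteoblasts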
[22] = test system: BJ; assay: growth inhibition of engineered Ras-driven BJ cells – cell-based, alamar blue fluorescence, cherrypicked samples, dose response (AID 2631); assay type: functional; settings: Homo sapiens;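 further: confirmatory dose-response assay in RAS-dependent BJ fibroblasts engineered with TERT, LT and ST, with cytotoxicity read by fluorescence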
[23] = cells; assay type: functional, cell-based; remark: listed apart in the source
[24] = loss of viability in HepG2 cells – cell-based, CellTiter-Glo, cherry-picked, cytotoxicity control for Shn3 inhibitor project, dose response (AID 624134); assay type: functional
[25] = target: T5, Heat shock factor protein 1 (Mus musculus, UniProt P38532); assay: enhancement of HSF1-driven luciferase signal – cell-based, NIH3T3, luminescence, dose retest, confirmation (AID 435004); assay type: functional;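 further: stress induced by proteasome inhibitor MG132 added 30 min after compound; luciferase reporter driven by HSF1 response element in NIH3T3 cells; actives raise luminescence as potentiators of the MG132 stress response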
T5 sequence (P38532 whole entry): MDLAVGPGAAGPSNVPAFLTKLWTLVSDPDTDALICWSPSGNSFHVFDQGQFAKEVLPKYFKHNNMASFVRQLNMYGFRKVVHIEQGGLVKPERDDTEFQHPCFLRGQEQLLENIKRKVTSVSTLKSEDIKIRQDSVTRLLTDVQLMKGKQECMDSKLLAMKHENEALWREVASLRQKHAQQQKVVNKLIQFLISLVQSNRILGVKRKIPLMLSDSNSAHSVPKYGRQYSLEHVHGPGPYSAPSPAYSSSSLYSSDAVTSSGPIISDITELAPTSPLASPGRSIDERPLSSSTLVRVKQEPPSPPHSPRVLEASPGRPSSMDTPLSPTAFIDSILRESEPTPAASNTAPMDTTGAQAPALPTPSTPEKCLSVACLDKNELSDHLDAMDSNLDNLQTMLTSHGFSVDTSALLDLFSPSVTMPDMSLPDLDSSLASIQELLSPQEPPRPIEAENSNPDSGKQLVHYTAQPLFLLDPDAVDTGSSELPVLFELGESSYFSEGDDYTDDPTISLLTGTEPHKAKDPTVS

[26] = test system: BJ; assay: BJ-TERT-LT-ST fibroblast viability loss – cell-based, RAS-independent, luminescence, dose response (AID 1935); assay type: functional; settings: Homo sapiens;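 further: BJ fibroblasts immortalized with TERT plus LT and ST oncogenes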
[27] = target: Nuclear receptor subfamily 0 group B member 1 (Homo sapiens, UniProt P51843); assay type: functional, cell-based;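 further: HEK293T cells transfected with SF-1 and DAX-1 plus StAR promoter luciferase reporter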
[28] = target: Paired box protein Pax-8 (Homo sapiens, UniProt Q06710); assay: PAX8 transcriptional activity inhibition in RMG-I – RMG-I cells, luciferase, cherry-pick, dose response (AID 687027); assay type: functional, cell-based;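 further: luciferase reporter driven by Pax8 target thyroperoxidase promoter measured by SteadyGlo luminescence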
[29] = test system: BJ; assay: BJ-TERT fibroblast viability loss – cell-based, RAS-independent, luminescence, dose response (AID 1933); assay type: functional; settings: Homo sapiens
[30] = test system: BJ; assay: cells; assay type: functional, cell-based; settings: Homo sapiens
[31] = DRD fibroblast viability loss – cell-based, non-viral oncogenic, luminescence, dose response (AID 1934); assay type: functional; settings: Homo sapiens
[32] = cells; assay type: functional, cell-based; remark: listed apart in the source

T3 sequence (P07550 whole entry): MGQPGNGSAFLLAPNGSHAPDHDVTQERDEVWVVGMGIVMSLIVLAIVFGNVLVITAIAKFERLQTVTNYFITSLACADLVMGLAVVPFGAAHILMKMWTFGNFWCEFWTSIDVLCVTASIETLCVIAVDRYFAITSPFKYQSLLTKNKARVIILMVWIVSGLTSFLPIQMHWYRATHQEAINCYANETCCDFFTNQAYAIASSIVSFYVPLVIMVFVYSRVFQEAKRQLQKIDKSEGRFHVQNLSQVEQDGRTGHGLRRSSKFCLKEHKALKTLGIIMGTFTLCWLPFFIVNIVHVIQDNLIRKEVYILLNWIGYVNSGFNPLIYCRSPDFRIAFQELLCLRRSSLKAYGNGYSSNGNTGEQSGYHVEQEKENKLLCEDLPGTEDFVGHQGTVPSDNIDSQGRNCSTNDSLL
Chain of Broad substrate specificity ATP-binding cassette transporter ABCG2 (Q9UNQ0 whole entry): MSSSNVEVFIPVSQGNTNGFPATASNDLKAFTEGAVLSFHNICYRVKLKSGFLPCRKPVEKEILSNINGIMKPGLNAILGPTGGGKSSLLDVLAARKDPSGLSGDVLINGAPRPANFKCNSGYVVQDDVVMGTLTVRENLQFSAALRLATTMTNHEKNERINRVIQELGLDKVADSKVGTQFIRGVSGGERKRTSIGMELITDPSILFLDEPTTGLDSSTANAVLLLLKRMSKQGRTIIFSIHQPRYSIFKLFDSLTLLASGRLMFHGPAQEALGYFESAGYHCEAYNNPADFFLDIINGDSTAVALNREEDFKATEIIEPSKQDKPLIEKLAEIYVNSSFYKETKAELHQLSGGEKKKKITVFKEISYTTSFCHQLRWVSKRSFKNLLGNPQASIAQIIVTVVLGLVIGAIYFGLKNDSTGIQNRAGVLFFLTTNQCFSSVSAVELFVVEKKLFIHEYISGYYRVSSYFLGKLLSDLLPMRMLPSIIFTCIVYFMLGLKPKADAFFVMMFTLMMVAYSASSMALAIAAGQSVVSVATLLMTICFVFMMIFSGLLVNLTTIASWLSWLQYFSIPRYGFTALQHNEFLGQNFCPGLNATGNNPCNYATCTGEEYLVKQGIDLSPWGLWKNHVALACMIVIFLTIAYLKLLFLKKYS
Chain of ATP-dependent translocase ABCB1 (P08183 whole entry): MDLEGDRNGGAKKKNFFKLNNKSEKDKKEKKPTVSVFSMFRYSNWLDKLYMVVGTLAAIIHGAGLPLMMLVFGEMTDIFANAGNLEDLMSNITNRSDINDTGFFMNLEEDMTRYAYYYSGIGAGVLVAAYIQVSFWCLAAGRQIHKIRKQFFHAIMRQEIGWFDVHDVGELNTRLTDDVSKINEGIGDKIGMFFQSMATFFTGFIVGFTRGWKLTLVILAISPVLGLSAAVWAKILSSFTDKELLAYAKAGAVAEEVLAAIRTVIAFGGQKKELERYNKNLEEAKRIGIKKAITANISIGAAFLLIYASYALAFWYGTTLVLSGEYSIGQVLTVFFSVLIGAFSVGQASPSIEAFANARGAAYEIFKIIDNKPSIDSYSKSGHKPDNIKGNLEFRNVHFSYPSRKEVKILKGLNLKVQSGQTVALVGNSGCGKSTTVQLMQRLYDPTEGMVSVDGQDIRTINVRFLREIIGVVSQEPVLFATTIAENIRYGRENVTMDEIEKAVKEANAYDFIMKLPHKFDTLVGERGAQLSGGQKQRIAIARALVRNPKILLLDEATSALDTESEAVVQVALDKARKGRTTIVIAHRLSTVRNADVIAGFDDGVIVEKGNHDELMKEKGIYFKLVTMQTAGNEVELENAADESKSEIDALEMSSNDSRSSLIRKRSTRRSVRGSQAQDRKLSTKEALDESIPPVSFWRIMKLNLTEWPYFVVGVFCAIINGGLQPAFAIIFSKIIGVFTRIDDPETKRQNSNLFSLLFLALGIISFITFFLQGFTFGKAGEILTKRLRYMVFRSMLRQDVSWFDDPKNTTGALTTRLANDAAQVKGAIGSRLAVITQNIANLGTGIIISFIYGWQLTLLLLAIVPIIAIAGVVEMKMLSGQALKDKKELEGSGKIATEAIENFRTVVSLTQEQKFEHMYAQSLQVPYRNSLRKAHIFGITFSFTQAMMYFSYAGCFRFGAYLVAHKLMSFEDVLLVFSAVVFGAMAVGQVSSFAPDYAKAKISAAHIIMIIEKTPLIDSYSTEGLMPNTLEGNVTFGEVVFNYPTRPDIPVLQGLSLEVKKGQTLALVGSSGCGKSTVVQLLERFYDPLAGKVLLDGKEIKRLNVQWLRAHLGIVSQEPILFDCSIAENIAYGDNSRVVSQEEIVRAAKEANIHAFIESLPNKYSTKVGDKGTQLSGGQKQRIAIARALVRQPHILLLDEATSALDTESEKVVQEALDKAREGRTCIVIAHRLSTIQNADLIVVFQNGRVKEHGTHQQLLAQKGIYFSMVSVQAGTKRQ
Chain of X-box-binding protein 1 (P17861 whole entry): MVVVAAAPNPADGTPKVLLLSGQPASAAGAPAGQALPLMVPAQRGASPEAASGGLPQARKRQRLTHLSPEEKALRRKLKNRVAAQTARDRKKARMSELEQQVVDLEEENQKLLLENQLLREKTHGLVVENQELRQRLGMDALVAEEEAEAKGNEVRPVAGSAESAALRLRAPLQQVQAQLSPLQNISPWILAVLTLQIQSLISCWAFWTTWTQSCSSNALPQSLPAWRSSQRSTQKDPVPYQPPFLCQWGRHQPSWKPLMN
Chain of Peroxisome proliferator-activated receptor gamma/Nuclear receptor coactivator 3 (P37231 whole entry): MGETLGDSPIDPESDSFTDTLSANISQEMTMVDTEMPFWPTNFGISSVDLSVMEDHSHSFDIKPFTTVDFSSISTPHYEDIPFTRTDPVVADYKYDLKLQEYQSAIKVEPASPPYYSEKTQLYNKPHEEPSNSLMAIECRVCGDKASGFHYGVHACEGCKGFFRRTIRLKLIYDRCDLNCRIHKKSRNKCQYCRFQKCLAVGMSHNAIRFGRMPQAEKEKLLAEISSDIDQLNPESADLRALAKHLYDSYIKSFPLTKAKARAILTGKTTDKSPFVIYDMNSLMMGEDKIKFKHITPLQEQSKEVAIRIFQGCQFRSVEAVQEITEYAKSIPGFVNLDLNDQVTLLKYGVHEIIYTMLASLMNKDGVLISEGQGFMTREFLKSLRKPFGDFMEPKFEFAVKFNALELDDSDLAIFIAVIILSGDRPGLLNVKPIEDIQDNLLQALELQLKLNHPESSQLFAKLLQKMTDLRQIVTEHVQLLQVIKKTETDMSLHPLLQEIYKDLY
Chain of Peroxisome proliferator-activated receptor gamma/Nuclear receptor coactivator 3 (Q9Y6Q9 whole entry, further chain): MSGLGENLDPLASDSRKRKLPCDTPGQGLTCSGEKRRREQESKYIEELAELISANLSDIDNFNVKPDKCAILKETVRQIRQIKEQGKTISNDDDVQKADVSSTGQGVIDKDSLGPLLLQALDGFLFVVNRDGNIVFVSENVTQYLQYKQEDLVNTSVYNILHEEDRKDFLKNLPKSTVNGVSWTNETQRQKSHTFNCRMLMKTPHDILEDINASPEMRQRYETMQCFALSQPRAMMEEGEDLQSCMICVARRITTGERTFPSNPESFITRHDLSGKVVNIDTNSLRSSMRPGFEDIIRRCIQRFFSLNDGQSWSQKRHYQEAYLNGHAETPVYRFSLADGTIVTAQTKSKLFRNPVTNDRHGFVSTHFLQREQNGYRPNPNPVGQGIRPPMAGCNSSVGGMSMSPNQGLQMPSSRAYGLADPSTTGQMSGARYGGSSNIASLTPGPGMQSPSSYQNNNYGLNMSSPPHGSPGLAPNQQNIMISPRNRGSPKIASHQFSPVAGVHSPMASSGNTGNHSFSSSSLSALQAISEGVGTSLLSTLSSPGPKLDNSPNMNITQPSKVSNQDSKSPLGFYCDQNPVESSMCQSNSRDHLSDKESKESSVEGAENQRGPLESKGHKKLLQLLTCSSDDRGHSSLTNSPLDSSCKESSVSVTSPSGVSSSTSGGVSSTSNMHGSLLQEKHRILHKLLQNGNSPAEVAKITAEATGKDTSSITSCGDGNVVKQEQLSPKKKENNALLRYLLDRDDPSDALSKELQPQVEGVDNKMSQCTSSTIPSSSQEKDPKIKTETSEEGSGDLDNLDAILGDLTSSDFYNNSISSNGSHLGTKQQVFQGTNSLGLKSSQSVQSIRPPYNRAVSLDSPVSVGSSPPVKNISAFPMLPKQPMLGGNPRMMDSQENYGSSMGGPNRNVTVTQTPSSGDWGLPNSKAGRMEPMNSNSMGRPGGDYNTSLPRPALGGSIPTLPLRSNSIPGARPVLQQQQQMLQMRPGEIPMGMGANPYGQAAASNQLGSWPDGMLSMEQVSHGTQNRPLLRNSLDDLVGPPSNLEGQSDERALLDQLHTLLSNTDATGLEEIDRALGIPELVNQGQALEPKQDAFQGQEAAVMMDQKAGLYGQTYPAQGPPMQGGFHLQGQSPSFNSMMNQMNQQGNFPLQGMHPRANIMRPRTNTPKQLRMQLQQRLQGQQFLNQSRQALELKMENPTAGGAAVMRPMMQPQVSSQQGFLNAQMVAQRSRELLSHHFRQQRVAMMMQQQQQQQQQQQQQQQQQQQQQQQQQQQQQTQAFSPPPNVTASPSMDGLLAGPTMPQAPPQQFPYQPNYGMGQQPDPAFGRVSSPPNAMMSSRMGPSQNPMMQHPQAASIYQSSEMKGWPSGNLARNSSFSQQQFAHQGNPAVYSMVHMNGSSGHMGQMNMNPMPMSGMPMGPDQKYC
Chain of Paired box protein Pax-8 (Q06710 whole entry): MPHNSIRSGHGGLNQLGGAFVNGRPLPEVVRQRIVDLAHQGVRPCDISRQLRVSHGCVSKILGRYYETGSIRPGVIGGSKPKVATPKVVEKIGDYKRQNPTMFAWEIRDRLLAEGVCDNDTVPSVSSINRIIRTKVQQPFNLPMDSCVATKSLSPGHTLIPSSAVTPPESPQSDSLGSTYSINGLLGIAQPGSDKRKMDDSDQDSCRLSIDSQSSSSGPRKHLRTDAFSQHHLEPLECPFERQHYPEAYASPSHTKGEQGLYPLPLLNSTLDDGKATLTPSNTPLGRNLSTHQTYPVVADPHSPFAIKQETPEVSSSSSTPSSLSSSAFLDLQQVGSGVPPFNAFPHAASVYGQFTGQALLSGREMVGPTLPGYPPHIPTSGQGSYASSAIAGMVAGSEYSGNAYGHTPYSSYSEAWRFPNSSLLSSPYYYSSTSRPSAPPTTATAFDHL

- AC50 [1]: 202 nM (active)
- AC50 [2]: 176 nM (active)
Compound: C[C@@H]1CN([C@H](C)CO)C(=O)c2cc(NC(=O)C3CCCCC3)ccc2O[C@H]1CN(C)S(=O)(=O)c1ccccc1Cl

Compound: COc1ccc(S(=O)(=O)Oc2ccc3cccc(N)c3c2)cc1
- IC50 [3]: 9.11 µM (active)
- IC50 [4]: 19.6 µM (active)

Compound: CC(C)Cc1nc2sc3c(NCc4ccco4)ncnc3c2c2c1COC(C)(C)C2
- EC50 [5]: 615 nM (active)
- EC50 [6]: > 79.4 µM (not active)
- EC50 [7]: 14 µM (active)
- EC50 [8]: > 79.4 µM (not active)
- EC50 [9]: 23.8 nM (active)
- EC50 [10]: 14.3 µM (active)
- EC50 [11]: > 79.4 µM (not active)

- EC50 [12]: 760 nM (inactive)
- EC50 [13]: 165 nM (active)
- IC50 [14]: 83.3 µM (active)
Compound: COc1cc(C(=O)N/N=C/c2ccc(OC)c(CN3CCN(c4ccc(F)cc4)CC3)c2)ccc1O

Compound: Cc1cc(Cl)n2c(nc3cc(F)c(F)cc32)c1C#N
- EC50 [15]: > 59.6 µM (inactive)
- AC50 [16]: 6.62 µM (active)
- Absolute IC50 (XBP1) [17]: 10 µM
- EC50 [18]: > 350 µM (not active)
- AC50 [19]: 4.49 µM (active)
- EC50 [20]: > 59.6 µM (inactive)
- AC50 [21]: 3.56 µM (active)
- EC50 [22]: 139 nM (inconclusive)
- EC50 [23]: 54.5 µM (active)
- AC50 [24]: 14.8 µM (active)
- EC50 [25]: 3.35 µM (active)

Compound: CCOC(=O)N1CCC(NC(=O)c2ccc3c(c2)N=C(C)c2c(C)ccc(C)c2S3)CC1
- EC50 [26]: 1.43 µM (active)
- IC50 [27]: > 67.5 µM (inactive)
- AC50 [28]: 3.05 µM (active)
- EC50 [29]: 1.52 µM (active)
- EC50 [30]: 29.3 µM (active)
- EC50 [31]: 1.12 µM (active)
- IC50 [32]: > 67.5 µM (inactive)
